{
  "source": "patent US4887995A",
  "about": "“Method of treating sickle cell anemia” (University of Pittsburgh, priority 1985, dated 1989)",
  "key": {"HbS": {"tested_on": "HbS", "test": "chromatographic separation for covalent binding to HbS"}, "erythrocyte membranes": {"tested_on": "erythrocyte membranes", "test": "transport across erythrocyte membranes", "assay_type": "in vitro ADME"}, "sickle hemoglobin (HbS)": {"tested_on": "sickle hemoglobin (HbS)", "test": "solubility assay: ability of a compound to increase solubility of sickle hemoglobin", "assay_type": "biochemical", "details": "low concentrations (5 mM.); the higher the ratio the higher the activity; compared with DiClBz and p-BrBz", "excerpt": "In comparative tests which we reported in J. of Med. Chem., 1984, 27, 103-105, which is incorporated herein by reference, ethacrynic acid was compared with active agents (1) [(3,4-dichlorobenzyl)oxy]acetic acid (DiClBz2) and (2) [(p-bromobenzyl)oxy]acetic acid (p-BrBz). The solubility assay measures the ability of a compound to increase solubility of sickle hemoglobin (HbS). […] The higher the ratio the higher the activity of the compound."}},
  "data": [
    {"molecule": "C=C(CC)C(=O)c1ccc(OCC(=O)O)c(Cl)c1Cl", "note": "[ethacrynic acid]", "values": [
      {"measurement": "covalent binding between HbS and compound", "setting": "HbS", "value": "desired tight covalent binding between the HbS and ethacrynic acid had occurred"},
      {"measurement": "ability to cross the red blood cell membrane and react with hemoglobin", "setting": "erythrocyte membranes", "value": "confirmed the ability of ethacrynic acid to cross the red blood cell membrane and react with hemoglobin"},
      {"measurement": "solubility ratio", "setting": "sickle hemoglobin (HbS)", "value": "higher solubility ratio than DiClBz and p-BrBz"}
    ]}
  ]
}
